Experiments:
[1] = system: TTTTT (all resistant and sensitive biotypes); assay: Greenhouse test, PO application, mean over all resistant and sensitive biotypes; type: in vivo; conditions: (A) 50, (B) 20, mixture 50 + 20 g of AS/ha; for TTTTT resistant mean (effect): mean of resistant biotypes (n = 17 or n = 15); for TTTTT sensitive mean (effect): mean of sensitive biotypes (n = 11)
Text: (§1) The 1:1 mixture of the two soil types was used specifically for cultivating small-seeded dicotyledonous weed since the standard field soil on its own tends to silt up, which may have an adverse effect on the emergence of small-seeded weeds. The resistances mentioned in the tables were confirmed beforehand in standard monitoring experiments. Nevertheless, the origins examined may have additional, hitherto unconfirmed resistances to various mechanisms of action.
(§2) The pots were then cultivated in a greenhouse (12-16 h light, temperature day 20-22° C., night 15-18° C.) until the time of application. The pots were treated at various BBCH stages of the seeds/plants on a laboratory track sprayer with spray liquors comprising the compositions according to the invention, mixtures of the prior art or the individual components. Application of the active compounds or active compound combinations and wetting agents formulated as WG, WP, EC or otherwise was carried out at the appropriate growth stages of the plants. The amount of water used for spray application was 100-600 l/ha. After the treatment, the plants were returned to the greenhouses and fertilized and watered as required. The pots were cultivated in a greenhouse (12-16 h light, temperature day 20-22° C., night 15-18° C.).
(§3) 3 weeks after the application, the foliar effect was evaluated on a scale of 0-100%:
(§4) 0%=no noticeable effect compared to untreated plants
(§5) 100%=full effect compared to untreated plants
(§6) The following abbreviations were used: • BBCH the BBCH code provides information about the morphological development stage of a plant. Officially, the abbreviation denotes the Biologische Bundesanstalt, Bundessortenamt and CHemische Industrie [Federal Biological Institute for Agriculture and Forestry, Federal Office for Crop Plant Varieties, Chemical Industry]. The range of BBCH 00-10 denotes the germination stages of the seeds until surface penetration. The range of BBCH 11-25 denotes the leaf development stages until stocking (corresponds to the number of tillers or side-shoots). • PE pre-emergence soil application; BBCH of the seeds/plants 00-10 • PO post-emergence application on the green parts of the plants; BBCH of the plants 11-25 • IU soil loamy silt—standard field soil • l/ha liters per hectare • S sensitive—the weed populations are sensitive to the active compounds tested • TSR target-site resistance. The weed populations comprise biotypes having a site-of-action-specific resistance, i.e. the binding site at the site of action is modified as a result of natural mutations in the gene sequence so that the active compounds are no longer able to bind, or bind in an unsatisfactory manner, and are therefore no longer able to act. • NTR non-target-site herbicide resistance; this is differentiated, inter alia, into EMR (Enhanced Metabolic Resistance) (the weed populations comprise biotypes having metabolic resistance, i.e. the plants are capable of metabolizing the active compounds more quickly via enzyme complexes, i.e. the active compounds are degraded more quickly in the plant), into reduced penetration into the plant, reduced translocation in the plant, accelerated excretion. […]

[2] = system: EPHHL; assay: Greenhouse test, pre-emergence (PE) soil application; type: in vivo, Euphorbia heterophylla; design: key: % effect: 0 = no effect, 100 = full effect vs untreated; conditions: group (B) compound alone, 20 g of AS/ha
Text: as §1, §2, §3, §4, §5, §6

[3] = system: EPHHL; assay: Greenhouse test, post-emergence (PO) application, foliar effect; type: in vivo, Euphorbia heterophylla; conditions: (A) 50, (B) 20, mixture 50 + 20 g of AS/ha, 3 weeks after application
Text: as §1, §2, §3, §4, §5, §6

[4] = system: BRODI; assay: Greenhouse test, pre-emergence (PE) soil application; type: in vivo, Bromus diformis; design: key: % effect: 0 = no effect, 100 = full effect vs untreated; conditions: group (B) compound alone, 20 g of AS/ha
Text: as §1, §2, §3, §4, §5, §6

[5] = system: KCHSC; assay: as above; type: in vivo, Kochia scoparia; design: key: % effect: 0 = no effect, 100 = full effect vs untreated; conditions: group (B) compound alone, 20 g of AS/ha
Text: as §1, §2, §3, §4, §5, §6

[6] = system: AMAPA; assay: Greenhouse test, post-emergence (PO) application, foliar effect; type: in vivo, Amaranthus palmeri; conditions: AMAPA resistant - group B (TSR), C1 (TSR) and G (NTR), (A) 50, (B) 20, mixture 50 + 20 g of AS/ha, 3 weeks after application
Text: as §1, §2, §3, §4, §5, §6

[7] = system: ALOMY; assay: Greenhouse test, pre-emergence (PE) soil application; type: in vivo, Alopecurus myosuroides; conditions: group (B) compound alone, 20 g of AS/ha
Text: as §1, §2, §3, §4, §5, §6

[8] = system: CHEAL; assay: as above; type: in vivo, Chenopodium album; design: key: % effect: 0 = no effect, 100 = full effect vs untreated; conditions: group (B) compound alone, 20 g of AS/ha
Text: as §1, §2, §3, §4, §5, §6

[9] = system: CHEAL; assay: Greenhouse test, post-emergence (PO) application, foliar effect; type: in vivo, Chenopodium album; conditions: (A) 50, (B) 20, mixture 50 + 20 g of AS/ha, 3 weeks after application
Text: as §1, §2, §3, §4, §5, §6

[10] = system: KCHSC; assay: as above; type: in vivo, Kochia scoparia; conditions: (A) 50, (B) 20, mixture 50 + 20 g of AS/ha, 3 weeks after application
Text: as §1, §2, §3, §4, §5, §6

[11] = system: ERIBO; assay: as above; type: in vivo, Erigeron bonariensis; conditions: (A) 50, (B) 20, mixture 50 + 20 g of AS/ha, 3 weeks after application
Text: as §1, §2, §3, §4, §5, §6

[12] = system: TTTTT (all resistant and sensitive biotypes); assay: Greenhouse test, PE application, mean over all resistant and sensitive biotypes; type: in vivo; conditions: (A) 12.5, (B) 20, mixture 12.5 + 20 g of AS/ha; for TTTTT resistant mean (effect): mean of resistant biotypes (n = 16); for TTTTT sensitive mean (effect): mean of sensitive biotypes (n = 11)
Text: as §1, §2, §3, §4, §5, §6

[13] = system: LOLSS; assay: Greenhouse test, pre-emergence (PE) soil application; type: in vivo, Lolium spp.; design: key: % effect: 0 = no effect, 100 = full effect vs untreated plants; conditions: group (B) compound alone, 20 g of AS/ha
Text: as §1, §2, §3, §4, §5, §6

[14] = system: BIDSU; assay: as above; type: in vivo, Bidens subalternans; conditions: group (B) compound alone, 20 g of AS/ha
Text: as §1, §2, §3, §4, §5, §6

[15] = system: BRODI; assay: Greenhouse test, post-emergence (PO) application, foliar effect; type: in vivo, Bromus diformis; conditions: (A) 50, (B) 20, mixture 50 + 20 g of AS/ha, 3 weeks after application
Text: as §1, §2, §3, §4, §5, §6

[16] = system: ERICA; assay: Greenhouse test, pre-emergence (PE) soil application; type: in vivo, Erigeron canadensis; design: key: % effect: 0 = no effect, 100 = full effect vs untreated; conditions: group (B) compound alone, 20 g of AS/ha
Text: as §1, §2, §3, §4, §5, §6

[17] = EPHHL resistant - group B (TSR) and G (NTR)
[18] = EPHHL resistant - group B (TSR)
[19] = CHEAL resistant - group B (TSR), C1 (NA) and G (NTR)
[20] = KCHSC resistant - group B (TSR)
[21] = ERIBO resistant - group B (NA) and G (NTR)
[22] = BRODI resistant - group A (TSR), B (NTR) and G (NTR)

CCS(=O)(=O)c1cccnc1S(=O)(=O)NC(=O)Nc1nc(OC)cc(OC)n1 [(B3), rimsulfuron]
TTTTT resistant mean (effect) [1]: 46% | TTTTT sensitive mean (effect) [1]: 88% | effect on EPHHL resistant - group B (TSR) [2]: 0 | effect on EPHHL resistant - group B (TSR) and G (NTR) [2]: 0 | effect on EPHHL sensitive [2]: 30 | foliar effect [3, 17]: 50% | foliar effect [3, 18]: 60% | foliar effect ([3]; EPHHL sensitive): 80% | effect on BRODI resistant - group A (TSR), B (NTR) and G (NTR) [4]: 70 | effect on BRODI sensitive [4]: 80 | effect on KCHSC resistant - group B (TSR) [5]: 20 | effect on KCHSC sensitive [5]: 80 | foliar effect [6]: 70% | effect on ALOMY sensitive [7]: 100 | effect on CHEAL resistant - group B (TSR), C1 (NA) and G (NTR) [8]: 45 | effect on CHEAL sensitive [8]: 85 | foliar effect [9, 19]: 70% | foliar effect ([9]; CHEAL sensitive): 80% | foliar effect [10, 20]: 0% | foliar effect ([10]; KCHSC sensitive): 90% | foliar effect [11, 21]: 60% | foliar effect ([11]; ERIBO sensitive): 90% | TTTTT resistant mean (effect) [12]: 24% | TTTTT sensitive mean (effect) [12]: 75% | effect on LOLSS resistant - group G (NTR) [13]: 60 | effect on LOLSS resistant group A (TSR, NTR), B (NTR) and C2 (NA) [13]: 50 | effect on LOLSS resistant group A (TSR, NTR), B (TSR, NTR) and C2 (NA) [13]: 50 | effect on LOLSS sensitive [13]: 70 | effect on BIDSU sensitive [14]: 80 | foliar effect [15, 22]: 75% | foliar effect ([15]; BRODI sensitive): 100% | effect on ERICA resistant - group B (NA) and G (NTR) [16]: 0 | effect on ERICA sensitive [16]: 70

CCOC(=O)c1ccccc1S(=O)(=O)NC(=O)Nc1nc(Cl)cc(OC)n1 [(B4), chlorimuron-ethyl]
TTTTT resistant mean (effect) [1]: 31% | TTTTT sensitive mean (effect) [1]: 72% | effect on EPHHL resistant - group B (TSR) [2]: 0 | effect on EPHHL resistant - group B (TSR) and G (NTR) [2]: 40 | effect on EPHHL sensitive [2]: 60 | foliar effect [3, 17]: 30% | foliar effect [3, 18]: 30% | foliar effect ([3]; EPHHL sensitive): 60% | effect on BRODI resistant - group A (TSR), B (NTR) and G (NTR) [4]: 80 | effect on BRODI sensitive [4]: 95 | effect on KCHSC resistant - group B (TSR) [5]: 0 | effect on KCHSC sensitive [5]: 50 | foliar effect [6]: 30% | effect on ALOMY sensitive [7]: 100 | effect on CHEAL resistant - group B (TSR), C1 (NA) and G (NTR) [8]: 60 | effect on CHEAL sensitive [8]: 90 | foliar effect [9, 19]: 50% | foliar effect ([9]; CHEAL sensitive): 60% | foliar effect [10, 20]: 0% | foliar effect ([10]; KCHSC sensitive): 90% | foliar effect [11, 21]: 60% | foliar effect ([11]; ERIBO sensitive): 80% | TTTTT resistant mean (effect) [12]: 29% | TTTTT sensitive mean (effect) [12]: 82% | effect on LOLSS resistant - group G (NTR) [13]: 60 | effect on LOLSS resistant group A (TSR, NTR), B (NTR) and C2 (NA) [13]: 55 | effect on LOLSS resistant group A (TSR, NTR), B (TSR, NTR) and C2 (NA) [13]: 10 | effect on LOLSS sensitive [13]: 70 | effect on BIDSU sensitive [14]: 90 | foliar effect [15, 22]: 70% | foliar effect ([15]; BRODI sensitive): 100% | effect on ERICA resistant - group B (NA) and G (NTR) [16]: 0 | effect on ERICA sensitive [16]: 100

COC(=O)c1csc(C)c1S(=O)(=O)NC(=O)n1nc(OC)n(C)c1=O [(B5), thiencarbazone-methyl]
TTTTT resistant mean (effect) [1]: 25% | TTTTT sensitive mean (effect) [1]: 76% | effect on EPHHL resistant - group B (TSR) [2]: 0 | effect on EPHHL resistant - group B (TSR) and G (NTR) [2]: 0 | effect on EPHHL sensitive [2]: 30 | foliar effect [3, 17]: 30% | foliar effect [3, 18]: 20% | foliar effect ([3]; EPHHL sensitive): 70% | effect on BRODI resistant - group A (TSR), B (NTR) and G (NTR) [4]: 70 | effect on BRODI sensitive [4]: 70 | effect on KCHSC resistant - group B (TSR) [5]: 0 | effect on KCHSC sensitive [5]: 85 | foliar effect [6]: 0% | effect on ALOMY sensitive [7]: 100 | effect on CHEAL resistant - group B (TSR), C1 (NA) and G (NTR) [8]: 60 | effect on CHEAL sensitive [8]: 90 | foliar effect [9, 19]: 70% | foliar effect ([9]; CHEAL sensitive): 70% | foliar effect [10, 20]: 0% | foliar effect ([10]; KCHSC sensitive): 90% | foliar effect [11, 21]: 60% | foliar effect ([11]; ERIBO sensitive): 70% | TTTTT resistant mean (effect) [12]: 22% | TTTTT sensitive mean (effect) [12]: 73% | effect on LOLSS resistant - group G (NTR) [13]: 70 | effect on LOLSS resistant group A (TSR, NTR), B (NTR) and C2 (NA) [13]: 80 | effect on LOLSS resistant group A (TSR, NTR), B (TSR, NTR) and C2 (NA) [13]: 20 | effect on LOLSS sensitive [13]: 75 | effect on BIDSU sensitive [14]: 75 | foliar effect [15, 22]: 50% | foliar effect ([15]; BRODI sensitive): 95% | effect on ERICA resistant - group B (NA) and G (NTR) [16]: 0 | effect on ERICA sensitive [16]: 60

From patent publication US9439430B2, “Method of controlling resistant harmful plants” (priority 2012, dated 2016)
